US10662100B2, “Chlorination-UV process for decomposition and detoxification of microcystin-LR” (priority 2016, dated 2020)
Values joined by “and” are separate entries in the source; they are usually repeats but may differ in a detail not shown here. Identical values can stand only once. Like-named read-outs stand apart in the source and are kept apart here. Starred links: 1 amine or outer side, 2 acyl side, 3 side chain; linkers in the order of their positions; H or OH if unused. Positions of bridges follow the written chain, without caps; N, C: chain ends. Non-standard residues stand in square brackets, D forms with d. Residues, ends and D or L forms follow the SMILES beside them. Adda = CO[C@@H](Cc1ccccc1)[C@@H](C)/C=C(C)/C=C/[C@H](N[*:1])[C@H](C)C(=O)[*:2]; dAsp(3S-Me) = C[C@H](C(=O)[*:3])[C@@H](N[*:1])C(=O)[*:2]; d(γGlu) = O=C(O)[C@@H](CCC(=O)[*:2])N[*:1]; NMeDha = C=C(NC)C(=O)O

Assays:
[1] = Chlorination of MC-LR, Total MC-LR by HPLC; assay type: physicochemical; conditions: pH 7.78
Protocol: (§1) Free chlorine and MC-LR solutions were freshly prepared before each experiment. The initial MC-LR concentration was 2.00×10^−6 mol/L (2.00 mg/L). The pH of MC-LR solutions before addition of chlorine was 7.78. Initial MC-LR decomposition experiments were conducted in unbuffered solutions in order to mitigate against participation of buffers and other inorganic ions in the reactions; pH measurements were not conducted after initiation of the reactions due to limited reaction volumes. In experiments that were designed to examine the effects of pH on MC-LR behavior, 10 mM phosphate buffer was added into MC-LR solution. The pH of solution was adjusted to 6.5, 7.5, and 8.5 by addition of 50 mM sulfuric acid or 100 mM sodium hydroxide.
(§2) […]. […] Pre-chlorinated samples were then collected in headspace-free, gas-tight containers for subsequent UV irradiation at a characteristic wavelength of 254 nm using a flat-plate collimated beam.
(§3) A high-performance liquid chromatography (HPLC) system (Surveyor, Thermo Scientific, FL, U.S.) equipped with an Acclaim PepMap100 C18 column (250 mm×1.0 mm I.D., 5 μm particle size) was used to measure MC-LR concentration (Merel et al., (2009) Chemosphere 74: 832-839). The HPLC mobile phase was CH3CN/H2O/TFA (60:40:0.1). Sample injection volumes were 20 μL with a flow rate of 1.0 mL/min. Detection was performed using a photodiode array at 238 nm. […]

[2] = cited from earlier work
NIH3T3 cells = assay type: cell-based, mouse
Hep3B cells = assay type: cell-based, human
[3] = UV254 photolysis and chlorine/UV process for MC-LR decomposition; assay type: physicochemical
Protocol: as §1, §2
Incident UV254 irradiance was 1.00×10^−4 W/cm^2, as measured by a calibrated radiometer (IL1700, International Light Technologies, Peabody, Mass., U.S.). UV254 doses applied in the experiments ranged from 0 to 720 mJ/cm^2 for exposure times ranging from 0 to 120 min. The actual UV254 doses delivered to the samples would have been slightly lower than these values because of the effects of reflection and absorbance, which were not accounted for. The collimated beam system used in these experiments has been described previously. Water samples were collected periodically for determination of MC-LR concentration and cytotoxicity, as described below. All experiments were conducted in triplicate and the values were expressed as mean±standard deviation (SD) from the replicate measurements.
as §3, with “(60:40:0.1).” for “(60:40:0.1). Sample injection volumes were 20 μL with a flow rate of 1.0 mL/min. Detection was performed using a photodiode array at 238 nm.”

[4] = 254 nm; cited from earlier work

Compound	apparent second-order rate constant for chlorination of MC-LR [1] [M⁻¹ s⁻¹]	concentration of MC-LR over time [1]	apparent second-order rate constant for chlorination of MC-LR ([2]; pH 6.1) [M⁻¹ s⁻¹]	apparent second-order rate constant for chlorination of MC-LR ([2]; pH 7) [M⁻¹ s⁻¹]	apparent second-order rate constant for chlorination of MC-LR ([2]; pH 8) [M⁻¹ s⁻¹]	decrease of cell viability (NIH3T3 cells)	change of cell viability resulting from UV254 exposure alone (Hep3B cells)	decrease of cell viability (Hep3B cells)	viability of Hep3B cells (Hep3B cells)	relative cell viability of Hep3B (Hep3B cells; pH 6.5) [%]	relative cell viability of Hep3B (Hep3B cells; pH 8.5)	MC-LR decomposition ([3]; pH 6.5) [%]	photodecay constant (pseudo first-order) ([3]; pH 7.78)	MC-LR decomposition ([3]; pH 8.5) [%]	quantum yield Φ254 for photodegradation [4] [mol/E]	molar absorptivity ε254 [4] [M⁻¹ cm⁻¹]
C=C1C(=O)N[C@H](C)C(=O)N[C@@H](CC(C)C)C(=O)N[C@@H](C(=O)O)[C@H](C)C(=O)N[C@@H](CCCNC(=N)N)C(=O)N[C@@H](/C=C/C(C)=C/[C@H](C)[C@H](Cc2ccccc2)OC)[C@H](C)C(=O)N[C@@H](C(=O)O)CCC(=O)N1C [MC-LR] (R[Adda][d(γGlu)][NMeDha][dA]L[dAsp(3S-Me)]-OH; lactam N-7)	44.5	remained essentially constant	127.8	91.5	33.1	up to 76%	modest increase	up to 89%	roughly 50%	60	roughly 80%	64	0.000146 s⁻¹ and 0.000169 s⁻¹ and 0.000179 s⁻¹ and 0.000223 s⁻¹	83		
CN1CC(=O)NC1=N [creatinine]															0.011±0.002	
N-chloro-creatinine															0.144±0.011	3911
